Experimental data taken from patent US20250368649A1, “TETRAHYDROPYRIDOPYRIMIDINE PAN-KRAS INHIBITORS” (Mirati Therapeutics, Inc., priority 2022, published 2025).

Assays:
[1] = molecular target: KRas G12A (Homo sapiens, UniProt P01116, G12A); format: binding; conditions: TR-FRET displacement, read-out: Binding to KRas (IC50 nM) G12A
[2] = molecular target: KRas WT (Homo sapiens, UniProt P01116); test: KRas binding assay (TR-FRET displacement), KRas WT; conditions: TR-FRET displacement
[3] = molecular target: KRas G13D (Homo sapiens, UniProt P01116, G13D); format: binding; conditions: TR-FRET displacement, read-out: Binding to KRas (IC50 nM) G13D
Chain of KRas G13D (P01116 1-169 isoform P01116-2 G13D): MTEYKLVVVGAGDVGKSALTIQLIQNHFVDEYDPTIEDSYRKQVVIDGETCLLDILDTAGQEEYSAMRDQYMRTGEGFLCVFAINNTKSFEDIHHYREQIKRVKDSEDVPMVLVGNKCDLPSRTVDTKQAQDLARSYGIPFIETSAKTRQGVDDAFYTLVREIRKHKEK

[4] = molecular target: KRas G12R (Homo sapiens, UniProt P01116, G12R); test: biochemical; conditions: Binding to KRas (IC50 nM) G12R, TR-FRET displacement, KRas G12R
Chain of KRas G12R (P01116 1-169 isoform P01116-2 G12R): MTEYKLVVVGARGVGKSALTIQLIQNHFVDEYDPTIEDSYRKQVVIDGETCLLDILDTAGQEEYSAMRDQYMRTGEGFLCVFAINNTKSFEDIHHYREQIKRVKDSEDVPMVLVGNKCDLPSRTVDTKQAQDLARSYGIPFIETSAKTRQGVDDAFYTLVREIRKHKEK

[5] = molecular target: KRas G12V (Homo sapiens, UniProt P01116, G12V); test: biochemical; conditions: Binding to KRas (IC50 nM) G12V, TR-FRET displacement, KRas G12V
Chain of KRas G12V (P01116 1-169 isoform P01116-2 G12V): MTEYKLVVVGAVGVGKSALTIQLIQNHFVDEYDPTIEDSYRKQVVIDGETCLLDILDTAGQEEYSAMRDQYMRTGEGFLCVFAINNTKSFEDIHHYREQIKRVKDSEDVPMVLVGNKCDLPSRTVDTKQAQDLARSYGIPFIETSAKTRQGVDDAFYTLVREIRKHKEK

[6] = molecular target: KRas Q61H (Homo sapiens, UniProt P01116, Q61H); test: KRas binding assay (TR-FRET displacement), KRas Q61H; conditions: TR-FRET displacement
Chain of KRas Q61H (P01116 1-169 isoform P01116-2 Q61H): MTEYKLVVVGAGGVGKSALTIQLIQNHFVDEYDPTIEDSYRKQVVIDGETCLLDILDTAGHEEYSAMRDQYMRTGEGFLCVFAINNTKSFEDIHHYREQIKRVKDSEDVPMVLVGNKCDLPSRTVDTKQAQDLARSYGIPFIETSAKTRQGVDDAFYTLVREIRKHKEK

[7] = molecular target: KRas G12D (Homo sapiens, UniProt P01116, G12D); test: biochemical; conditions: Binding to KRas (IC50 nM) G12D, TR-FRET displacement, KRas G12D
Chain of KRas G12D (P01116 1-169 isoform P01116-2 G12D): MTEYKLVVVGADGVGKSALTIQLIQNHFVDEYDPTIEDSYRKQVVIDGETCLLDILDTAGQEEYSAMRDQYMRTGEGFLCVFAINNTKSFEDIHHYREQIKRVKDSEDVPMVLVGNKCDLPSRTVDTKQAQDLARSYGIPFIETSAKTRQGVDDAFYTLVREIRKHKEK

[8] = molecular target: KRas G12S (Homo sapiens, UniProt P01116, G12S); format: binding; conditions: TR-FRET displacement, read-out: Binding to KRas (IC50 nM) G12S
Chain of KRas G12S (P01116 1-169 isoform P01116-2 G12S): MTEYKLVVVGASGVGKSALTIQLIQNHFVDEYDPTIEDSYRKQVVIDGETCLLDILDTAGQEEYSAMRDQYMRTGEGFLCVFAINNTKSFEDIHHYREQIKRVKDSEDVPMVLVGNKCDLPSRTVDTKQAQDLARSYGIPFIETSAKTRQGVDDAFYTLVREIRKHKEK

[9] = molecular target: KRas G12C (Homo sapiens, UniProt P01116, G12C); format: binding; conditions: TR-FRET displacement, read-out: Binding to KRas (IC50 nM) G12C
Chain of KRas G12C (P01116 1-169 isoform P01116-2 G12C): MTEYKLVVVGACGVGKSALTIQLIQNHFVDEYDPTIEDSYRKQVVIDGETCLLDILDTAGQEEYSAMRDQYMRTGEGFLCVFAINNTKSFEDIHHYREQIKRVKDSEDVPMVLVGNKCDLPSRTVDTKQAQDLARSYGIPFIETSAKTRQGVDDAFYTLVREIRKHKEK

Chain of KRas WT (P01116 1-169 isoform P01116-2): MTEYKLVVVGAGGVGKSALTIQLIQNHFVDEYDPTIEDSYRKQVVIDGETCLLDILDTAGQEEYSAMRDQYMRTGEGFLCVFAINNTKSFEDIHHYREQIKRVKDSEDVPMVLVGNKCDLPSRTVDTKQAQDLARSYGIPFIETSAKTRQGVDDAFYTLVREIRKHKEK
Chain of KRas G12A (P01116 1-169 isoform P01116-2 G12A): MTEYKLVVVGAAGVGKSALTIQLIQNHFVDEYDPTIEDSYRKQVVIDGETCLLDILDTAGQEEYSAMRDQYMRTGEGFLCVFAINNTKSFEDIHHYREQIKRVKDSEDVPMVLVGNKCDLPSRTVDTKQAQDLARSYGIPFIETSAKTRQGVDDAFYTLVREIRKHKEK

SMILES	IC50 [1]	IC50 [2]	IC50 [3]	IC50 [4]	IC50 [5]	IC50 [6]	IC50 [7]	IC50 [8]	IC50 [9]
CCc1cccc2cccc(N3CCc4c(nc(OCC56CCCN5CCC6)nc4N4CCC(O)CC(S(C)(=O)=O)C4)C3)c12 (single isomer, unassigned) [Example 479, 1-(7-(8-ethylnaphthalen-1-yl)-2-((tetrahydro-1H-pyrrolizin-7a(5H)-yl)methoxy)-5,6,7,8-tetrahydropyrido[3,4-d]pyrimidin-4-yl)-6-(methylsulfonyl)azepan-4-ol]	55 nM	33 nM	32 nM	130 nM	54 nM	42 nM	99 nM	56 nM	81 nM
CCc1cccc2cccc(N3CCc4c(nc(OCC5(CN(C)C)CC5)nc4N4CCCN(CC(F)(F)F)CC4)C3)c12 [Example 684, 1-(1-(((7-(8-ethylnaphthalen-1-yl)-4-(4-(2,2,2-trifluoroethyl)-1,4-diazepan-1-yl)-5,6,7,8-tetrahydropyrido[3,4-d]pyrimidin-2-yl)oxy)methyl)cyclopropyl)-N,N-dimethylmethanamine]	2640 nM	1880 nM	2220 nM	11400 nM	11200 nM	2210 nM	41700 nM	1960 nM	1810 nM
CCc1cccc2cccc(N3CCc4c(nc(OCC5(CN(C)C)CC5)nc4N4CCCC(Cn5cc(C(=O)NC)nn5)C4)C3)c12 (centres unmarked) [Example 528, 1-((1-(2-((1-((dimethylamino)methyl)cyclopropyl)methoxy)-7-(8-ethylnaphthalen-1-yl)-5,6,7,8-tetrahydropyrido[3,4-d]pyrimidin-4-yl)piperidin-3-yl)methyl)-N-methyl-1H-1,2,3-triazole-4-carboxamide]	10500 nM	8290 nM	7930 nM		13600 nM	7520 nM	6290 nM	11700 nM	13500 nM
CCc1cccc2cccc(N3CCc4c(nc(OCC5(CN(C)C)CC5)nc4NCCc4sc(N)nc4C)C3)c12 [Example 670, 5-(2-((2-((1-((dimethylamino)methyl)cyclopropyl)methoxy)-7-(8-ethylnaphthalen-1-yl)-5,6,7,8-tetrahydropyrido[3,4-d]pyrimidin-4-yl)amino)ethyl)-4-methylthiazol-2-amine]	1880 nM	1960 nM	1970 nM		1540 nM	2030 nM	9750 nM	1980 nM	602 nM
CCc1cccc2cccc(N3CCc4c(nc(OCC5(CN(C)C)CC5)nc4NC4CN(c5nncs5)C4)C3)c12 [Example 674, N-(1-(1,3,4-thiadiazol-2-yl)azetidin-3-yl)-2-((1-((dimethylamino)methyl)cyclopropyl)methoxy)-7-(8-ethylnaphthalen-1-yl)-5,6,7,8-tetrahydropyrido[3,4-d]pyrimidin-4-amine]	3970 nM	3490 nM	4050 nM		1250 nM	3960 nM	1410 nM	3700 nM	2030 nM
CCc1cccc2cccc(N3CCc4c(nc(OCC5(CN(C)C)CC5)nc4NCC4CN(c5ncccn5)C4)C3)c12 [Example 561, 2-((1-((dimethylamino)methyl)cyclopropyl)methoxy)-7-(8-ethylnaphthalen-1-yl)-N-((1-(pyrimidin-2-yl)azetidin-3-yl)methyl)-5,6,7,8-tetrahydropyrido[3,4-d]pyrimidin-4-amine]	994 nM	1280 nM	2190 nM		6110 nM	1740 nM	25700 nM	536 nM	557 nM
CCc1cccc2cccc(N3CCc4c(nc(OCC5(CN(C)C)CC5)nc4N4CCCC(c5n[nH]cc5NC(C)=O)C4)C3)c12 (centres unmarked) [Example 545, N-(3-(1-(2-((1-((dimethylamino)methyl)cyclopropyl)methoxy)-7-(8-ethylnaphthalen-1-yl)-5,6,7,8-tetrahydropyrido[3,4-d]pyrimidin-4-yl)piperidin-3-yl)-1H-pyrazol-4-yl)acetamide]	4750 nM	7230 nM	8090 nM		6080 nM	5900 nM	13100 nM	5000 nM	4780 nM
CCc1cccc2cccc(N3CCc4c(nc(OCC5(CN(C)C)CC5)nc4NCc4ncc(C#N)c(N)n4)C3)c12 [Example 706, 4-amino-2-(((2-((1-((dimethylamino)methyl)cyclopropyl)methoxy)-7-(8-ethylnaphthalen-1-yl)-5,6,7,8-tetrahydropyrido[3,4-d]pyrimidin-4-yl)amino)methyl)pyrimidine-5-carbonitrile]	2810 nM	3310 nM	3330 nM		2200 nM	3770 nM	7670 nM	2820 nM	1680 nM
CCc1cccc2cccc(N3CCc4c(nc(OCC5(CN(C)C)CC5)nc4N(C)Cc4nncn4C(C)C)C3)c12 [Example 549, 2-((1-((dimethylamino)methyl)cyclopropyl)methoxy)-7-(8-ethylnaphthalen-1-yl)-N-((4-isopropyl-4H-1,2,4-triazol-3-yl)methyl)-N-methyl-5,6,7,8-tetrahydropyrido[3,4-d]pyrimidin-4-amine]	1670 nM	1910 nM	2110 nM		1980 nM	2540 nM	17400 nM	1360 nM	946 nM
CCc1cccc2cccc(N3CCc4c(nc(OCC5(CN(C)C)CC5)nc4N4CC(CO)OC(C(F)(F)F)C4)C3)c12 (centres unmarked) [Example 540, (4-(2-((1-((dimethylamino)methyl)cyclopropyl)methoxy)-7-(8-ethylnaphthalen-1-yl)-5,6,7,8-tetrahydropyrido[3,4-d]pyrimidin-4-yl)-6-(trifluoromethyl)morpholin-2-yl)methanol]	3280 nM	5810 nM	8850 nM		1720 nM	7730 nM	9350 nM	3750 nM	1840 nM
CCc1cccc2cccc(N3CCc4c(nc(OCC5(CN(C)C)CC5)nc4NCc4cnnn4C)C3)c12 [Example 662, 2-((1-((dimethylamino)methyl)cyclopropyl)methoxy)-7-(8-ethylnaphthalen-1-yl)-N-((1-methyl-1H-1,2,3-triazol-5-yl)methyl)-5,6,7,8-tetrahydropyrido[3,4-d]pyrimidin-4-amine]	9520 nM	10300 nM	13600 nM		4040 nM	10500 nM	14400 nM	10100 nM	5470 nM
CCc1cccc2cccc(N3CCc4c(nc(OCC5(CN(C)C)CC5)nc4NC4CN(c5nccn6nc(C)cc56)C4)C3)c12 [Example 699, 2-((1-((dimethylamino)methyl)cyclopropyl)methoxy)-7-(8-ethylnaphthalen-1-yl)-N-(1-(2-methylpyrazolo[1,5-a]pyrazin-4-yl)azetidin-3-yl)-5,6,7,8-tetrahydropyrido[3,4-d]pyrimidin-4-amine]	8450 nM	7340 nM	9980 nM		5460 nM	8740 nM	6150 nM	9980 nM	4200 nM
CCc1cccc2cccc(N3CCc4c(nc(OCC5(CN(C)C)CC5)nc4N4CC(C)CC(CO)C4)C3)c12 (centres unmarked) [Example 516, (1-(2-((1-((dimethylamino)methyl)cyclopropyl)methoxy)-7-(8-ethylnaphthalen-1-yl)-5,6,7,8-tetrahydropyrido[3,4-d]pyrimidin-4-yl)-5-methylpiperidin-3-yl)methanol]	1490 nM	2650 nM	3180 nM		1150 nM	2530 nM	1230 nM	1560 nM	1030 nM
CCc1cccc2cccc(N3CCc4c(nc(OCC5(CN(C)C)CC5)nc4NCc4ccnn4CC(F)F)C3)c12 [Example 683, N-((1-(2,2-difluoroethyl)-1H-pyrazol-5-yl)methyl)-2-((1-((dimethylamino)methyl)cyclopropyl)methoxy)-7-(8-ethylnaphthalen-1-yl)-5,6,7,8-tetrahydropyrido[3,4-d]pyrimidin-4-amine]	8280 nM	10800 nM	16100 nM		5850 nM	12100 nM	8310 nM	8600 nM	5450 nM
CCc1cccc2cccc(N3CCc4c(nc(OCC5(CN(C)C)CC5)nc4N4CCN(c5nc(O)cs5)CC4)C3)c12 [Example 564, 2-(4-(2-((1-((dimethylamino)methyl)cyclopropyl)methoxy)-7-(8-ethylnaphthalen-1-yl)-5,6,7,8-tetrahydropyrido[3,4-d]pyrimidin-4-yl)piperazin-1-yl)thiazol-4-ol]	11600 nM	6920 nM	7400 nM		3710 nM	4380 nM	29500 nM	14200 nM	8580 nM
